For data set [1], the target named is T1, G-protein coupled receptor 35 (Homo sapiens, UniProt Q9HC97). As to the kind of experiment: GPR35 antagonists blocking zaprinast-driven arrestin recruitment, primary screen, imaging, U2OS, beta-arrestin-GFP, zaprinast agonist (AID 2058).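 Also: antagonist potency meaning inhibition of agonist-induced arrestin redistribution.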 Format: functional. Background: Recruitment of arrestin is a read-out of receptor activation apart from second messengers.

Data set [2] deals with T1, G-protein coupled receptor 35. As to the kind of experiment: SAR Analysis for the identification of Selective Antagonists of ERK1/2 Activity in GPR35-Overexpressing U2OS Cells. [Related pubchem assays: 2079, 2058 ]. The format is functional, cell-based.
Data set [3] deals with G-protein coupled receptor 55 (Homo sapiens, UniProt Q9Y2T6). As to the kind of experiment: GPR55 antagonists, SAR follow-up, counter-screen for GPR35 antagonist project, imaging, image-based (AID 2397). The format is functional. On the technique in general: The purpose of a counterscreen is to sort out artefacts and off-target activity.
Chain of G-protein coupled receptor 55 (Q9Y2T6 whole entry): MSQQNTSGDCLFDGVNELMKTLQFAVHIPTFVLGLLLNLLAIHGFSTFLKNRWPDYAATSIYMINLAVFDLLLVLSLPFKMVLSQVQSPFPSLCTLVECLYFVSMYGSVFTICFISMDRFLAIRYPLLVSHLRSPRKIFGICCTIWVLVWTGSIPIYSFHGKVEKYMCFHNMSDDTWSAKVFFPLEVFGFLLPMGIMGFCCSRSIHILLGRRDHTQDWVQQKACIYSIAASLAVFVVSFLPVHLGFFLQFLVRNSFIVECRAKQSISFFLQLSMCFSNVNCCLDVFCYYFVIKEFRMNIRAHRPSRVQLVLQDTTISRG
Data set [4] can be described thus: cytotoxicity in HEK-293T cells, dose response, cytotoxicity control for BCR NF-kB inhibitor project, luminescence, B-cell screen hits (AID 489021).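 Also: HEK-293T cells carrying an NF-kB luciferase reporter; cells exposed to compound for about 14 hours before viability readout.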 The format is functional, cell-based.
Data set [5] in a line: growth induction of Burl-1 ts yeast mutant, dose response, counter-screen for SUMOylation pathway inhibitor project, whole organism, S. cerevisiae, luminescence (AID 463199). Format: functional.
The next data set addresses Trypsin (Sus scrofa, UniProt P00761). As to the kind of experiment: porcine trypsin inhibitors, dose response, selectivity assay for Rce1 protease inhibitor project, biochemical, quenched peptide fluorescence, cherry-pick (AID 488789).
The next data set concerns the target CAAX prenyl protease 1 (Saccharomyces cerevisiae S288c, UniProt P47154). As to the kind of experiment: Ste24 protease inhibitors, dose response, biochemical, S. cerevisiae, plate reader, cherry-pick (AID 488815).
For data set [6], the target named is T2, Cytochrome P450 2C9 (Homo sapiens, UniProt P11712).
T2 sequence (P11712 whole entry, the tested form may be a part): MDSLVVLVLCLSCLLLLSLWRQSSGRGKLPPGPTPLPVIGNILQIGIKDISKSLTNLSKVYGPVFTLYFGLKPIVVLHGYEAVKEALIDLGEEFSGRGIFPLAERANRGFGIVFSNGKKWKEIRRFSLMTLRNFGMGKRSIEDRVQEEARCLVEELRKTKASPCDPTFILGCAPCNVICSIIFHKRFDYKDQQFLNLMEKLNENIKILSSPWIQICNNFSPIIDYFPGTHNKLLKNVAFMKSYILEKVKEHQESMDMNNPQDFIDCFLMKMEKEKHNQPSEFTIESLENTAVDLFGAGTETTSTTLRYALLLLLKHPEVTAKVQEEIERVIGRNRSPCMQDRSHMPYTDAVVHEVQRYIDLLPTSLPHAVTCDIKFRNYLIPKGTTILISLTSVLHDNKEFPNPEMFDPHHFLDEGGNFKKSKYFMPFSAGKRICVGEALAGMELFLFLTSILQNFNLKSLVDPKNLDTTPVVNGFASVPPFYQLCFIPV
The target of data set [7] is T3, RNA-binding protein pos-1 (Caenorhabditis elegans, UniProt G5EF15).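 Also: purified POS-1 fused to maltose binding protein made in E. coli; potency of compounds blocking POS-1 binding to fluorescent RNA.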
T3 sequence (G5EF15 whole entry): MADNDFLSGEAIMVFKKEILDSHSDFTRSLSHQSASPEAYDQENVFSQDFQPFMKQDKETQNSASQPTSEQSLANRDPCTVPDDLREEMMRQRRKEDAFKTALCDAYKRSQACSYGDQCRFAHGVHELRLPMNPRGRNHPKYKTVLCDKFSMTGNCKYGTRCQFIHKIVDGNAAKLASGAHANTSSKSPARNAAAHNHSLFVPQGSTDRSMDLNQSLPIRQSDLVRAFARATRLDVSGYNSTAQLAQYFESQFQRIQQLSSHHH
As to the kind of experiment: inhibitors of POS-1/mex-3 RNA binding, dose response, biochemical, fluorescence polarization (AID 1964). (Fluorescence polarisation rises when a labelled molecule tumbles more slowly, as on binding a larger partner.)

The target in data set [8] is T4, Zinc finger protein mex-5 (Caenorhabditis elegans, UniProt Q9XUB2).
T4 sequence (Q9XUB2 whole entry): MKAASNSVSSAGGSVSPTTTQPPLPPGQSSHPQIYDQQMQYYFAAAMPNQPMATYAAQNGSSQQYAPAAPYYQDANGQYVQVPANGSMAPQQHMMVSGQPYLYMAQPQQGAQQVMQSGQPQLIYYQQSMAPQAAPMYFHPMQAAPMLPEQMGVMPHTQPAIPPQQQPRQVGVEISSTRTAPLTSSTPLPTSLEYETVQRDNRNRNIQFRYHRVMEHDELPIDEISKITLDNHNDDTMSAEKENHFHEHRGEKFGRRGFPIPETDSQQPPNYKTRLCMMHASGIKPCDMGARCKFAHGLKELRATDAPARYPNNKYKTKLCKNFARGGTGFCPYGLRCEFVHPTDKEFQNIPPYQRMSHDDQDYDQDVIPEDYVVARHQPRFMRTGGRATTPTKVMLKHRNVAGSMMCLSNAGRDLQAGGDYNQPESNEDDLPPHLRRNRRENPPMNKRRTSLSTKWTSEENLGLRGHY
As to the kind of experiment: MEX-5/TCR-2 RNA interaction inhibitors, dose response, biochemical, C. elegans, fluorescence polarization (AID 1960).

A further data set concerns the target Large T antigen (Simian virus 40, UniProt P03070). The format is functional, Betapolyomavirus macacae.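 Also: Confirmatory-stage PubChem screen for compounds that inhibit SV40 T antigen.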
The target of data set [9] is Intestinal-type alkaline phosphatase (Mus musculus, UniProt P24822). As to the kind of experiment: PubChem AID 488785. Format: functional.
Chain of Intestinal-type alkaline phosphatase (Mus musculus, UniProt P24822) (P24822 whole entry): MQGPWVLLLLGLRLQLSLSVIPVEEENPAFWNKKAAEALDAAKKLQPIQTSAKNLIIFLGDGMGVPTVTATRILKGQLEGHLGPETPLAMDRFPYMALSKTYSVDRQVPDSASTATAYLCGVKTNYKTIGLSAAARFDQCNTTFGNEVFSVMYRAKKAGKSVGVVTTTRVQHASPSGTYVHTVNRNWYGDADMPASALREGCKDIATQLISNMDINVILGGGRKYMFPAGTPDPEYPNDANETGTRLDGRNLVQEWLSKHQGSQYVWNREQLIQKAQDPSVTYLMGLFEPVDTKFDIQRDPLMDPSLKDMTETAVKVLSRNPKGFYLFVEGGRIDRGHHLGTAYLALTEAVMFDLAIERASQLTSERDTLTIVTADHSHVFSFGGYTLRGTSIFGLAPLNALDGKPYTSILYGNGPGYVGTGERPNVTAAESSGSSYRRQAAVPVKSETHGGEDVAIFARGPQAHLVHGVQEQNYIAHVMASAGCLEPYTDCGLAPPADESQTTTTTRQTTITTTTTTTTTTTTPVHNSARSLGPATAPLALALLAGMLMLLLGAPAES
The target in data set [10] is T5, Alkaline phosphatase, tissue-nonspecific isozyme (Homo sapiens, UniProt P05186).
T5 sequence (P05186 whole entry): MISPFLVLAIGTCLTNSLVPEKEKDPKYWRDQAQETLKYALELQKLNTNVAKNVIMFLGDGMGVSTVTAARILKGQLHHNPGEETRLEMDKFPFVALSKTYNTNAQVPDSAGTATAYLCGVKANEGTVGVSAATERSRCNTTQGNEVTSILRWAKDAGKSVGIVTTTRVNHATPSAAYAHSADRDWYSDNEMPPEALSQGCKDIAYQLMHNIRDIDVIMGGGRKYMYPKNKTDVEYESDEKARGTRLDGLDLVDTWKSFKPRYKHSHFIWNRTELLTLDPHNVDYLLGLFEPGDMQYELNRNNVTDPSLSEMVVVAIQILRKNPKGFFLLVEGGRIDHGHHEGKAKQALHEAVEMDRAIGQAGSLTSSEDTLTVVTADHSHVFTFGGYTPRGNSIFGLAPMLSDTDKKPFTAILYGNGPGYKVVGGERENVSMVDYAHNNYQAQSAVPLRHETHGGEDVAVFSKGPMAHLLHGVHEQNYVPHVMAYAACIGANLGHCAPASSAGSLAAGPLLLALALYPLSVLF
As to the kind of experiment: TNAP enzyme inhibition by screening hits, dose response, selectivity assay for mouse IAP inhibitor project, biochemical, human TNAP, uHTS hits (AID 488906). The format is functional.

Data set [11] has as its target Intestinal-type alkaline phosphatase (Homo sapiens, UniProt P09923). As to the kind of experiment: inhibition of human intestinal alkaline phosphatase – biochemical, dose response (AID 488876). The format is functional.
Data set [12] addresses Hepatocyte nuclear factor 4-alpha (Homo sapiens, UniProt P41235). The format is functional, cell-based.
For data set [13], the target named is T6, Mu-type opioid receptor (Homo sapiens, UniProt P35372). As to the kind of experiment: SAR Analysis of Antagonists of the MOR Receptor using an Image-Based Assay - Set 2. [Related pubchem assays (depositor defined):AID1777, AID1785, AID1786, AID1966, AID2133, AID2136, AID2284, AID2285, AID2420]. The format is functional.
T6 sequence (P35372 whole entry): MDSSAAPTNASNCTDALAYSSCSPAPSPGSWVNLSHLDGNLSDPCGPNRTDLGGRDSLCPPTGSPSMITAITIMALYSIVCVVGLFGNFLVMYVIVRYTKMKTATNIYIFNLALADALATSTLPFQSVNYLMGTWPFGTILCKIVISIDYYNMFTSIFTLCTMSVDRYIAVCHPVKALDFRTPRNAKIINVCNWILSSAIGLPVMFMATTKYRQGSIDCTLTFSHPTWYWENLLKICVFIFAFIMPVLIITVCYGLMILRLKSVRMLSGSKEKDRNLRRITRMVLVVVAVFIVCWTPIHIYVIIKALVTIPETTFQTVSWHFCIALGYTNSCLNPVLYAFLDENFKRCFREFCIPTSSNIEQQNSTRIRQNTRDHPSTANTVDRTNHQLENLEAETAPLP
In data set [14] the target is T7, Kappa-type opioid receptor (Homo sapiens, UniProt P41145). As to the kind of experiment: SAR analysis of Antagonists of the Kappa Opioid Receptor (KOR) using an Image-Based Assay - Set 2. [Related pubchem assays (depositor defined):AID1777, AID1785, AID1786, AID1966, AID2133, AID2136, AID2284, AID2285, AID2348]. The format is functional.
T7 sequence (P41145 whole entry): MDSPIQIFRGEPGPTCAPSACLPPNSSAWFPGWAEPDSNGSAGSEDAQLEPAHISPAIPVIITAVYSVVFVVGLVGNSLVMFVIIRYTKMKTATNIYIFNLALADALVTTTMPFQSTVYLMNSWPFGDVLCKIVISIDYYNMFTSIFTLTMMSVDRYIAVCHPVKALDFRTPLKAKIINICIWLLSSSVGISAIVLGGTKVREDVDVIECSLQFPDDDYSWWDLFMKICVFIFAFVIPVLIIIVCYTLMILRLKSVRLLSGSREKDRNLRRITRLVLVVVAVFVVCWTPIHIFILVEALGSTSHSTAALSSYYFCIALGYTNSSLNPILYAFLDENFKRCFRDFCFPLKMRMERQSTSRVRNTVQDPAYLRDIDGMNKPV
Data set [15] deals with T6, Mu-type opioid receptor. As to the kind of experiment: SAR Analysis of Agonists of the MOR Receptor using an Image-Based Assay - Set 2. [Related pubchem assays (depositor defined):AID1777, AID1785, AID1786, AID1966, AID2133, AID2136, AID2284, AID2285, AID2352]. The format is functional.
The target in data set [16] is T7, Kappa-type opioid receptor. As to the kind of experiment: SAR analysis of small molecule agonists of the kappa opioid receptor via a luminescent beta-arrestin assay - Set 2. [Related pubchem assays (depositor defined):AID1777, AID1785, AID1786, AID1966, AID2133, AID2136, AID2284, AID449737]. The format is functional.
The target of data set [17] is T8, Delta-type opioid receptor (Homo sapiens, UniProt P41143). As to the kind of experiment: SAR Analysis of Agonists of the DOR Receptor using an Image-Based Assay - Set 2. [Related pubchem assays (depositor defined):AID1777, AID1785, AID1786, AID1966, AID2133, AID2136, AID2284, AID2285, AID2370]. The format is functional.
T8 sequence (P41143 whole entry): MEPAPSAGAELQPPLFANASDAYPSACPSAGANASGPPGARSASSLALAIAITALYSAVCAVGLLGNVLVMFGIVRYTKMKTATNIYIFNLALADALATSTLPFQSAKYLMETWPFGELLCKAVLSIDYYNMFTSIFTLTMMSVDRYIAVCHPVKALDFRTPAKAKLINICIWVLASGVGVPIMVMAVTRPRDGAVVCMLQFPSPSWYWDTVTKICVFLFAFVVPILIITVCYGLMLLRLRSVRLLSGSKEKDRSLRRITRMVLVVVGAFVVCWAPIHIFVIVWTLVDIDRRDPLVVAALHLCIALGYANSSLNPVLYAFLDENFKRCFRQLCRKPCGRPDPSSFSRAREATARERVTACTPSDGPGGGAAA
Data set [18] deals with T8, Delta-type opioid receptor. As to the kind of experiment: SAR Analysis of Antagonists of the DOR Receptor using an Image-Based Assay - Set 2. [Related pubchem assays (depositor defined):AID1777, AID1785, AID1786, AID1966, AID2133, AID2136, AID2284, AID2285, AID2357]. The format is functional.
Data set [19] concerns the target T7, Kappa-type opioid receptor. As to the kind of experiment: SAR analysis of Agonists of the Kappa Opioid Receptor (KOR) using an Image-Based Assay - Set 2. [Related pubchem assays (depositor defined):AID1777, AID1786, AID1966, AID2133, AID2136, AID2284, AID2285, AID2359]. The format is functional.
In data set [20] the test system is Streptococcus sp. 'group A'. As to the kind of experiment: growth inhibition of control SK(-) GAS strain, dose response, counter-screen for streptokinase expression inhibitor project, luminescence, kanamycin, BacTiterGlo, confirmation (AID 1900). Format: functional, organism-based.
The target in a further data set is T9, Streptokinase A (Streptococcus pyogenes serotype M1, UniProt P10520).
T9 sequence (P10520 whole entry): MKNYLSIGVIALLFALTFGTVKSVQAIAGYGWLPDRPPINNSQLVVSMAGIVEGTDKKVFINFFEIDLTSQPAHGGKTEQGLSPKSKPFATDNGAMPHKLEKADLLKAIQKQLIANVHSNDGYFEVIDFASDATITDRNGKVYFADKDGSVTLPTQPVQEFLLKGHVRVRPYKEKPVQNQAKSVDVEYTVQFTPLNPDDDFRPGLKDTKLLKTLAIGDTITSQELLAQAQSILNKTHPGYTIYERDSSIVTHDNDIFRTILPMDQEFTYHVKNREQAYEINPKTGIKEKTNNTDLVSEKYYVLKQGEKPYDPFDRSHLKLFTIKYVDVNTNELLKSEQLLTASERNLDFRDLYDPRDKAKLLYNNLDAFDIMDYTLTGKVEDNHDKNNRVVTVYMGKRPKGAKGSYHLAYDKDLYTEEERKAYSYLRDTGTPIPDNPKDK
As to the kind of experiment: S. pyogenes streptokinase expression inhibitors, potency, dose response, plasminogen activation absorbance, OD405 (AID 1914).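 Also: secreted streptokinase activity via plasminogen activation per viability signal from cell pellet.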 Format: functional, Streptococcus pyogenes M1 GAS.

The subject of a further data set is Streptococcus. As to the kind of experiment: Group A Streptococcus viability loss, dose response, counter-screen for streptokinase expression inhibitor project, luminescence, BacTiterGlo (AID 1915).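 Also: potency for reduction of bacterial viability or growth.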 The format is functional, organism-based.
The next data set has as its target Cytochrome P450 2C19 (Homo sapiens, UniProt P33261). As to the kind of experiment: Cytochrome panel assay with activity outcomes. Panel member name: p450-cyp2c19 Compounds with AC50 equal or less than 10 uM are considered active. The format is functional.
For a further data set, the target named is Cytochrome P450 2D6 (Homo sapiens, UniProt P10635).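 Also: CYP2D6 member of a cytochrome P450 panel assay.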
Chain of Cytochrome P450 2D6 (P10635 whole entry): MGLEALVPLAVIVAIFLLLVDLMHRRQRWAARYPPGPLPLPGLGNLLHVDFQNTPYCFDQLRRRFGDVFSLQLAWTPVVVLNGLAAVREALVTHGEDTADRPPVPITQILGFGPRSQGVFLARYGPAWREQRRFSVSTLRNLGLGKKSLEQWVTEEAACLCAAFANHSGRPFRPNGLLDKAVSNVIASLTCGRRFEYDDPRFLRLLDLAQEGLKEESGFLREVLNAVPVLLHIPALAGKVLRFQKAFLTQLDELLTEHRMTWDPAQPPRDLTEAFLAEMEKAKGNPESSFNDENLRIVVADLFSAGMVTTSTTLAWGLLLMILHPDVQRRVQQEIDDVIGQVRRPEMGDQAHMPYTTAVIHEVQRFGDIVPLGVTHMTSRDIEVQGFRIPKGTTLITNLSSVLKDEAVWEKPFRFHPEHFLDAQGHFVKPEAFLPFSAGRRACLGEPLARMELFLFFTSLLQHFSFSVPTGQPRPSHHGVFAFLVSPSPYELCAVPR
Another data set concerns the target T10, Cytochrome P450 1A2 (Homo sapiens, UniProt P05177).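 Also: PubChem cytochrome P450 panel assay, CYP1A2 panel member.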
T10 sequence (P05177 whole entry): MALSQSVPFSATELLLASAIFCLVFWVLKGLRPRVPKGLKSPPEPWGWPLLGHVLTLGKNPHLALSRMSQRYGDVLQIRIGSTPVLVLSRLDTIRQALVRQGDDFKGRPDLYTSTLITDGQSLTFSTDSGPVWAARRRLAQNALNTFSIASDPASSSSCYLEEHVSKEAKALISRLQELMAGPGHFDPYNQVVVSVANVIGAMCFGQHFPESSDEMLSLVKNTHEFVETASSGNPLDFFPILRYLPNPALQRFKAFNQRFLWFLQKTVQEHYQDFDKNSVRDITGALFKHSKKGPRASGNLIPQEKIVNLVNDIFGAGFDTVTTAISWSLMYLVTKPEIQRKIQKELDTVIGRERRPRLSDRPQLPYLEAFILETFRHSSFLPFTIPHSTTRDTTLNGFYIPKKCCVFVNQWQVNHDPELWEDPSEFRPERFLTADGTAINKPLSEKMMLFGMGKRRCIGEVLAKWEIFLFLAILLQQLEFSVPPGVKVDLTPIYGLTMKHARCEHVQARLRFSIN

Data set [21] concerns the target T2, Cytochrome P450 2C9. This is another data set of the same source.

The source made the active and inactive calls.

T1 sequence (Q9HC97 whole entry): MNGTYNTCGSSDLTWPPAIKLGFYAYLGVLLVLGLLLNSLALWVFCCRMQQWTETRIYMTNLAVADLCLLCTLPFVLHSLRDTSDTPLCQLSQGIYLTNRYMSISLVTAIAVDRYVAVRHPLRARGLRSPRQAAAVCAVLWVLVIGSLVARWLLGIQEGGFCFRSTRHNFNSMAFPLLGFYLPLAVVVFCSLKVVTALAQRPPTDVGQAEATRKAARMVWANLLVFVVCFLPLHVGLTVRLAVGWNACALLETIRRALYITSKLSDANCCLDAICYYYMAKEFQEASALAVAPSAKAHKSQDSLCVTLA
Chain of CAAX prenyl protease 1 (P47154 whole entry): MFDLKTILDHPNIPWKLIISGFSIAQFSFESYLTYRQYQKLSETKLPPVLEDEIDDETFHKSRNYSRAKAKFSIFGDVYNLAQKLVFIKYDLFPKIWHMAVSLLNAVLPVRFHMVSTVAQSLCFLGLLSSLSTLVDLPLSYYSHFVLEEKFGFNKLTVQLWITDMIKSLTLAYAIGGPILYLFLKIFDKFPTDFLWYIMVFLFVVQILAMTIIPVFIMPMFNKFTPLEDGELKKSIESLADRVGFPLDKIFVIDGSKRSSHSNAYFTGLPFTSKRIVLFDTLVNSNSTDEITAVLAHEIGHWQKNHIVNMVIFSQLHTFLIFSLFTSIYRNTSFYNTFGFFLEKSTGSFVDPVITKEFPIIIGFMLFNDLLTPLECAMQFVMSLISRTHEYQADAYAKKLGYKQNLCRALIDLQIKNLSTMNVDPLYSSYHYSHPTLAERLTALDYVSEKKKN
Chain of Cytochrome P450 2C19 (P33261 whole entry): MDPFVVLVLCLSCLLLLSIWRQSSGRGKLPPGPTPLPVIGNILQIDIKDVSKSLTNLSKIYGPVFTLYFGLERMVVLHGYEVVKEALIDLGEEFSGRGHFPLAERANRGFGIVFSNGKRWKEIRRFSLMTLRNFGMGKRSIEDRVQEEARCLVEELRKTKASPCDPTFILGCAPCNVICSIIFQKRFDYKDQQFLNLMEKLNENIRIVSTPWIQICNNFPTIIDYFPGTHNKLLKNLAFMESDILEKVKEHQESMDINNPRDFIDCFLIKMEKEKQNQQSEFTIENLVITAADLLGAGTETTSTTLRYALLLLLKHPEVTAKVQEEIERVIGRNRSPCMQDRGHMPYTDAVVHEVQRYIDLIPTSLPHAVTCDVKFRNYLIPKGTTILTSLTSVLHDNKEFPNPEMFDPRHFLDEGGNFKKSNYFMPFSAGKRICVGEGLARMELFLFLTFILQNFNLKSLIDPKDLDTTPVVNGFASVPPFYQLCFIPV
Chain of Intestinal-type alkaline phosphatase (Homo sapiens, UniProt P09923) (P09923 whole entry): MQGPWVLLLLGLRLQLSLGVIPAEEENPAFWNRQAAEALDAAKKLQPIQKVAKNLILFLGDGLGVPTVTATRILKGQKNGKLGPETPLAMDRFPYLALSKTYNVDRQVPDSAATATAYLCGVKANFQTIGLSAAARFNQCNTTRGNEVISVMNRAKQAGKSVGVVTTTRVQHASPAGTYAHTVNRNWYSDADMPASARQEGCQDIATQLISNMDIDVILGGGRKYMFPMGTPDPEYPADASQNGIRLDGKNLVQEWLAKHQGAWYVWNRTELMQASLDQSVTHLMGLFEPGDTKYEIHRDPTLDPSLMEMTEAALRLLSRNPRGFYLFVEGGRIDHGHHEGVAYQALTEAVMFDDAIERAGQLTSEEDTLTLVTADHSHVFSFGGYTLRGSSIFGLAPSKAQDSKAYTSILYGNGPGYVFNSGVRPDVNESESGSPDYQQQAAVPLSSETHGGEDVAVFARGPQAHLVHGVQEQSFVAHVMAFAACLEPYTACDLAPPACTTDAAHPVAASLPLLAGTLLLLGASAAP

One may read the IC50 as the concentration that gives 50% inhibition. On to `Cc1ccc(/C=C2\SC(=S)N(CCCC(=O)Nc3ccc(O)cc3)C2=O)cc1`, for which the IC50 is 0.744 µM (active) in [1], 0.253 µM (active) in [2], > 32 µM (inactive) in data set [3] and > 80 µM (inactive) in [4].

What is called AC50 is the concentration giving half of the maximal activity seen. On to `O=C(c1cc(F)ccc1F)C1CCCN(C(=O)c2ccc3nccnc3c2)C1` (centres undefined), for which the AC50 in data set [5] was 78.3 µM (active).

On to `COc1ccc(-c2cc3ccccc3n2CC(O)CNCCO)cc1` (centres undefined), for which the AC50 at Trypsin was 17.3 µM (active); at CAAX prenyl protease 1, 11.5 µM (active); at Cytochrome P450 2C9 [6], 17.8 µM (inconclusive).

Usually EC50 stands for the midpoint of the concentration-response curve. `CN1C(=O)/C(=C/C=C/c2ccco2)C(=O)NC1=S`: the values for the EC50 in [7] and in data set [8] were 33.5 µM (active) and 37.5 µM (active), respectively. Moreover, the IC50 is 11.9 µM (active) at Large T antigen; 11.8 µM (active) in data set [9]; 23.5 µM (active) in data set [10]; 9.58 µM (active) in data set [11]; 2.56 µM (active) in data set [12].

For the compound `COc1ccc(CSc2nnc(-c3ccccn3)n2Cc2ccco2)cc1`, the IC50 (on Mu-type opioid receptor [13]; in data set [14]; in data set [18]) was > 32 µM (inactive) in each case. Moreover, the EC50 at Mu-type opioid receptor [15] was > 32 µM (inactive); in [16], 7.69 µM (active); in data set [17], > 32 µM (inactive); in data set [19], 12.4 µM (inactive).

As to `CC1(C)N=C(N)N=C(Nc2ccccc2)N1`, the values for the EC50 (in data set [20]; at Streptokinase A; in the data set on Streptococcus) were 1.52 µM (active), > 150 µM (not active) and > 150 µM (not active), respectively. Besides, the AC50 entry on Cytochrome P450 2C19 is “inactive”; at Cytochrome P450 2D6 it was 39.8 µM (inconclusive); on Cytochrome P450 1A2, “inactive”; on Cytochrome P450 2C9 [21] it was “inconclusive”.
